Patent US20210009575A1, “HYDROXYISOXAZOLINES AND DERIVATIVES THEREOF” (Bayer Aktiengesellschaft, priority 2017, published 2021)
Like-named read-outs stand apart in the source and are kept apart here.

Key:
Puccinia recondita = assay: In vivo preventive test on Puccinia recondita (brown rust on wheat); details: 264 h, read-out: efficacy
[1] = test system: Colletotrichum lindemuthianum; assay: Colletotrichum lindemuthianum in vitro cell test; format: cell-based; details: 144 h, read-out: efficacy
[2] = for LogP: method [a]: LC-UV, acidic range, Table 1
Procedure: (§1) Measurement of LogP values was performed according to EEC directive 79/831 Annex V.A8 by HPLC (High Performance Liquid Chromatography) on reversed phase columns with the following methods:
(§2) [a] LogP value is determined by measurement of LC-UV, in anacidic range, with 0.1% formic acid in water and acetonitrile as eluent (linear gradient from 10% acetonitrile to 95% acetonitrile). [b] LogP value is determined by measurement of LC-UV, in a neutral range, with 0.001 molar ammonium acetate solution in water and acetonitrile as eluent (linear gradient from 10% acetonitrile to 95% acetonitrile). [c] LogP value is determined by measurement of LC-UV, in an acidic range, with 0.1% phosphoric acid and acetonitrile as eluent (linear gradient from 10% acetonitrile to 95% acetonitrile).
(§3) If more than one LogP value is available within the same method, all the values are given and separated by “+”.

[3] = 500 ppm of active ingredient, wheat sprayed 24 hours before contamination, evaluated 11 days after the inoculation
[4] = 20 ppm of active ingredient, inhibition of fungal growth, 6 days incubation, liquid culture

Procedure for physchem: as §1, §2, §3

Row | Structure (SMILES) | chromatographic logP (physchem) | pest or weed control at 500 ppm (Puccinia recondita; [3]) | inhibition of growth at 20 ppm [1, 4] | other results
1 | COC(=O)c1ccc(C(=O)CC(=O)C(F)(F)Cl)cc1 [Compound 1b-04, methyl 4-(4-chloro-4,4-difluoro-3-oxobutanoyl)benzoate] | 2.11 |  |  | 
2 | CC(O)c1ccc(C2=NOC(O)(C(F)(F)F)C2)cc1 (stereo not shown) [Ia-044, 3-[4-(1-hydroxyethyl)phenyl]-5-(trifluoromethyl)-4,5-dihydro-1,2-oxazol-5-ol] | 1.78 | 90 to 100% | 80 to 89% | 
3 | OC1(C(F)(F)F)CC(c2ccc(-c3ccc(F)cc3)cc2)=NO1 (stereo not shown) [Ia-075, 3-(4′-fluoro[biphenyl]-4-yl)-5-(trifluoromethyl)-4,5-dihydro-1,2-oxazol-5-ol] | 3.46 | 80 to 89% | 90 to 100% | 
4 | CC(=O)c1ccc(C2=NOC(O)(C(F)(F)F)C2)cc1 (stereo not shown) [Ia-038, 1-{4-[5-hydroxy-5-(trifluoromethyl)-4,5-dihydro-1,2-oxazol-3-yl]phenyl}ethanone] | 2.11 | 90 to 100% | 90 to 100% | 
5 | COC(=O)c1ccc(C2=NOC(O)(C(F)(F)Cl)C2)cc1 (stereo not shown) [Ib-049, methyl 4-{5-[chloro(difluoro)methyl]-5-hydroxy-4,5-dihydro-1,2-oxazol-3-yl}benzoate] | 2.55 |  |  | 
6 | NCc1ccc(C2=NOC(O)(C(F)(F)F)C2)cc1 (stereo not shown) [Ia-112, 3-(4-Aminomethyl-phenyl)-5-trifluoromethyl-4,5-dihydro-isoxazol-5-ol] | 0.63 | 90 to 100% |  | 
7 | OC1(C(F)(F)F)CC(c2ccc(-c3cncnc3)cc2)=NO1 (stereo not shown) [Ia-087, 3-[4-(pyrimidin-5-yl)phenyl]-5-(trifluoromethyl)-4,5-dihydro-1,2-oxazol-5-ol] | 1.86 | 90 to 100% | 90 to 100% | 
8 | OC1(C(F)(F)F)CC(c2ccc(C#CC3CC3)cc2)=NO1 (stereo not shown) [Ia-031, 3-[4-(cvclopropvlethvnvl)phenyl]-5-(trifluoromethyl)-4,5-dihydro-1,2-oxazol-5-ol] | 3.41 | 80 to 89% | 90 to 100% | 
9 | CN(C)C(=O)Oc1ccc(C2=NOC(O)(C(F)(F)Cl)C2)cc1 (stereo not shown) [Ib-095, 4-{5-[Chloro(difluoro)methyl]-5-hydroxy-4,5-dihydro-1,2-oxazol-3-yl}phenyl dimethylcarbamate] |  |  |  | pest or weed control at 500 ppm (Puccinia recondita): 90 to 100%; inhibition of growth at 20 ppm [1]: 80 to 89%; chromatographic logP [2]: 2.35
10 | CN(C(=O)c1ccc(C(=O)/C=C(\O)C(F)(F)F)cc1)c1ccccc1 [Compound 1b-01] | 2.17 |  |  | 
11 | O=C(Nc1ccc(F)cc1F)c1ccc(C2=NOC(O)(C(F)(F)Cl)C2)cc1 (stereo not shown) [Ib-030, 4-{5-[chloro(difluoro)methyl]-5-hydroxy-4,5-dihydro-1,2-oxazol-3-vl}-N-(2,4-difluorophenyl)benzamide] | 2.76 |  |  | 
12 | CCc1noc(-c2ccc(C3=NOC(OC(C)=O)(C(F)(F)F)C3)cc2)n1 (stereo not shown) [Ia-095, [3-[4-(3-Ethyl-1,2,4-oxadiazol-5-yl)phenyl]-5-(trifluoromethyl)-4H-isoxazol-5-yl]acetate] |  |  |  | LogP [2]: 3.68^[a]
13 | CON=C(C)c1ccc(C2=NOC(O)(C(F)(F)F)C2)cc1 (stereo not shown) [Ia-037, 3-[4-(N-methoxvethanimidovl)phenyl]-5-(trifluoromethyl)-4,5-dihydro-1,2-oxazol-5-ol] | 2.98 |  | 90 to 100% | 
14 | Nc1ccc(C2=NOC(O)(C(F)(F)F)C2)cc1 (stereo not shown) [Ia-114, 3-(4-aminophenyl)-4,5-dihydro-5-(trifluoromethyl)-5-isoxazolol] | 1.49 | 90 to 100% | 80 to 89% | 
15 | Cc1ccc(C)n1-c1ccc(C(=O)CC(=O)C(F)(F)F)cc1 [Compound 1b-35, 1-[4-(2,5-dimethyl-1H-pyrrol-1-yl)phenyl]-4,4,4-trifluoro-1,3-butanedione] | 3.21 |  |  | 
16 | CCc1noc(-c2ccc(C3=NOC(O)(C(F)(F)F)C3)cc2)n1 (stereo not shown) [Ia-093, 3-[4-(3-Ethyl-1,2,4-oxadiazol-5-yl)phenyl]-5-(trifluoromethyl)-4H-isoxazol-5-ol] | 2.88 | 90 to 100% | 90 to 100% | 
17 | OC1(C(F)(F)F)CC(c2ccc(-c3ccc4sccc4c3)cc2)=NO1 (stereo not shown) [Ia-108] |  |  |  | LogP [2]: 3.94^[a]
18 | O=C(O)c1ccc(C2=NOC(O)(C(F)(F)Cl)C2)cc1 (stereo not shown) [Ib-048, 4-{5-[chloro(difluoro)methyl]-5-hydroxy-4,5-dihydro-1,2-oxazol-3-yl}benzoic acid] | 1.84 |  |  | 
19 | CCc1noc(-c2ccc(C(=O)/C=C(\O)C(F)(F)F)cc2)n1 [Compound 1b-02, 1-[4-(3-Ethyl-1,2,4-oxadiazol-5-yl)phenyl]-4,4,4-trifluoro-3-hydroxy-but-2-en-1-one] | 2.43 |  |  | 
